Data: ChEMBL document CHEMBL3046160, “Insecticidal Activities of the Enantiomers of Asymmetric 1-[1-(6-Chloro-3-pyridyl)ethyl]-2-nitroiminoimidazolidine against American Cockroach, Cucurbit Leaf Beetle, Green Rice Leafhopper and Green Peach Aphid Following Injection, Dipping and Spraying” (2004)

Columns and labels:
Periplaneta americana [1] = test: Insecticidal activity against Periplaneta americana (American cockroach) compound administered through injection into abdomen; assay type: functional
Myzus persicae [2] = test: Insecticidal activity against Myzus persicae (green peach aphid) in two-leaf stage eggplant assessed as mortality at 1.6 ppm after 7 days; assay type: functional; settings: 168 h
Nephotettix cincticeps [3] = test: Insecticidal activity against Nephotettix cincticeps (green rice leafhopper) in compound-sprayed rice plant assessed as mortality at 1.6 ppm after 2 to 7 days; assay type: functional
Aulacophora [4] = test: Insecticidal activity against second-instar larvae of Aulacophora femoralis (cucurbit leaf beetle) in compound-treated cucumber leaf assessed as mortality at 1.6 ppm after 2 to 7 days; assay type: functional
[5] = biological target: T1, Nicotinic acetylcholine receptor alpha 5 subunit (Musca domestica) (UniProt A9XFY4); test: Displacement of [3H]IMI from Musca domestica (house fly) head membrane nicotinic acetylcholine receptor
T1 sequence (whole entry): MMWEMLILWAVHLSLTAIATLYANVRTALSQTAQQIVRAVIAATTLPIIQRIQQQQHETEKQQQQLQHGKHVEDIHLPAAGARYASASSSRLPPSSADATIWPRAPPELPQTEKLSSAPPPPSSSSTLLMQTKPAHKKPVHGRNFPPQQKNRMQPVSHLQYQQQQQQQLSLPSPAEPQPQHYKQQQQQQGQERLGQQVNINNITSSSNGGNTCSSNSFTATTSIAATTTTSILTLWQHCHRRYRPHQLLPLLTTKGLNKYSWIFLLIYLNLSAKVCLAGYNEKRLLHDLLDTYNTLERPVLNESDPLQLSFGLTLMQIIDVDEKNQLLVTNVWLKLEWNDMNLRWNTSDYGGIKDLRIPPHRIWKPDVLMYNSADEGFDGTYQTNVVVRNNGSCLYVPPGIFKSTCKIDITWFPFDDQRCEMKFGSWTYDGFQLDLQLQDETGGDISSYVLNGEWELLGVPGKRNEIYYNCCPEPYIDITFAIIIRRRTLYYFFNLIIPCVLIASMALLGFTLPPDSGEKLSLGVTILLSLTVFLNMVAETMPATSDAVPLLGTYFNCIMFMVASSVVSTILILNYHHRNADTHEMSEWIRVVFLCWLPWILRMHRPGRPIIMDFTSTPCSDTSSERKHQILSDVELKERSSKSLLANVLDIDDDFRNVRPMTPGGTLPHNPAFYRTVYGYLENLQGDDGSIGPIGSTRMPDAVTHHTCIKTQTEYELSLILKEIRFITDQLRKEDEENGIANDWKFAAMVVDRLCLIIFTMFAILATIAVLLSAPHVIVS

Nephotettix cincticeps [6] = test: Insecticidal activity against Nephotettix cincticeps (green rice leafhopper) in compound-sprayed rice plant assessed as mortality at 8 ppm after 2 to 7 days; assay type: functional
Aulacophora [7] = test: Insecticidal activity against second-instar larvae of Aulacophora femoralis (cucurbit leaf beetle) in compound-treated cucumber leaf assessed as mortality at 8 ppm after 2 to 7 days; assay type: functional
Periplaneta americana [8] = test: Insecticidal activity against Periplaneta americana (American cockroach) compound administered through injection into abdomen in presence of piperonyl butoxide and NIA 16388; assay type: functional
Musca domestica [9] = test: Insecticidal activity against Musca domestica (house fly) compound administered through injection in presence of piperonyl butoxide and NIA 16388; assay type: functional
Musca domestica [10] = test: Insecticidal activity against Musca domestica (house fly) compound administered through injection; assay type: functional
Periplaneta americana [11] = test: Neuroblocking potency in Periplaneta americana (American cockroach) admoninal central nerve cod; assay type: functional
Myzus persicae [12] = test: Insecticidal activity against Myzus persicae (green peach aphid) in two-leaf stage eggplant assessed as mortality at 8 ppm after 7 days; assay type: functional; settings: 168 h

Q: C[C@H](c1ccc(Cl)nc1)N1CCN/C1=N\[N+](=O)[O-] [(R)-METHYL-IMIDACLOPRID] was tested. Which MLD (Periplaneta americana [1]) did it give?
A: The MLD was 42 nmol.

Q: What about the mortality at 1.6 ppm (Myzus persicae [2]) of the same molecule?
A: The mortality at 1.6 ppm was 60%.

Q: And the mortality at 1.6 ppm (Nephotettix cincticeps [3])?
A: The mortality at 1.6 ppm was 100%.

Q: And the mortality at 1.6 ppm (Aulacophora [4])?
A: Its mortality at 1.6 ppm is 50%.

Q: And the Activity [5]?
A: Its Activity is 0.95 µM.

Q: What about the mortality at 8 ppm (Nephotettix cincticeps [6]) of the same molecule?
A: Its mortality at 8 ppm is 100%.

Q: And the mortality at 8 ppm (Aulacophora [7])?
A: Its mortality at 8 ppm is 90%.

Q: And the MLD (Periplaneta americana [8])?
A: The MLD was 0.83 nmol.

Q: And the MLD (Musca domestica [9])?
A: The MLD was 2.3 pmol.

Q: What about the MLD (Musca domestica [10]) of the same molecule?
A: The MLD was 55 pmol.

Q: What about the Activity (Periplaneta americana [11]) of the same molecule?
A: The Activity was 73 µM.

Q: What about the mortality at 8 ppm (Myzus persicae [12]) of the same molecule?
A: The mortality at 8 ppm was 90%.

Q: With C[C@@H](c1ccc(Cl)nc1)N1CCN/C1=N\[N+](=O)[O-] [(S)-METHYL-IMIDACLOPRID] as the molecule, how does the MLD (Periplaneta americana [1]) read?
A: Its MLD is 30 nmol.

Q: And the mortality at 1.6 ppm (Myzus persicae [2])?
A: Its mortality at 1.6 ppm is 40%.

Q: What about the mortality at 1.6 ppm (Nephotettix cincticeps [3]) of the same molecule?
A: Its mortality at 1.6 ppm is 90%.

Q: And the mortality at 1.6 ppm (Aulacophora [4])?
A: Its mortality at 1.6 ppm is 100%.

Q: What about the Activity [5] of the same molecule?
A: The Activity was 0.19 µM.

Q: What about the mortality at 8 ppm (Nephotettix cincticeps [6]) of the same molecule?
A: Its mortality at 8 ppm is 100%.

Q: What about the mortality at 8 ppm (Aulacophora [7]) of the same molecule?
A: Its mortality at 8 ppm is 100%.

Q: What about the MLD (Periplaneta americana [8]) of the same molecule?
A: The MLD was 0.93 nmol.

Q: What about the MLD (Musca domestica [9]) of the same molecule?
A: Its MLD is 1.1 pmol.

Q: What about the MLD (Musca domestica [10]) of the same molecule?
A: The MLD was 45 pmol.

Q: What about the Activity (Periplaneta americana [11]) of the same molecule?
A: Its Activity is 5.9 µM.

Q: What about the mortality at 8 ppm (Myzus persicae [12]) of the same molecule?
A: The mortality at 8 ppm was 60%.

Q: O=[N+]([O-])/N=C1\NCCN1Cc1ccc(Cl)nc1 [IMIDACLOPRID] was tested. Which MLD (Periplaneta americana [1]) did it give?
A: Its MLD is 1.1 nmol.

Q: What about the mortality at 1.6 ppm (Myzus persicae [2]) of the same molecule?
A: Its mortality at 1.6 ppm is 100%.

Q: What about the mortality at 1.6 ppm (Nephotettix cincticeps [3]) of the same molecule?
A: Its mortality at 1.6 ppm is 100%.

Q: What about the mortality at 1.6 ppm (Aulacophora [4]) of the same molecule?
A: The mortality at 1.6 ppm was 100%.

Q: What about the Activity [5] of the same molecule?
A: The Activity was 0.02 µM.

Q: What about the mortality at 8 ppm (Nephotettix cincticeps [6]) of the same molecule?
A: Its mortality at 8 ppm is 100%.

Q: And the mortality at 8 ppm (Aulacophora [7])?
A: The mortality at 8 ppm was 100%.

Q: And the MLD (Periplaneta americana [8])?
A: Its MLD is 0.07 nmol.

Q: And the MLD (Musca domestica [9])?
A: The MLD was 0.26 pmol.

Q: And the MLD (Musca domestica [10])?
A: The MLD was 2.2 pmol.

Q: What about the Activity (Periplaneta americana [11]) of the same molecule?
A: Its Activity is 2.3 µM.

Q: And the mortality at 8 ppm (Myzus persicae [12])?
A: The mortality at 8 ppm was 100%.

Q: How did the MLD (Periplaneta americana [1]) turn out when CN1CCC[C@H]1c1cccnc1 [NICOTINE] was run?
A: Its MLD is 490 nmol.

Q: And the Activity [5]?
A: The Activity was 11.9 µM.

Q: And the MLD (Periplaneta americana [8])?
A: Its MLD is 310 nmol.

Q: Which results are given for CN1CCC[C@@H]1c1cccnc1 [R-NICOTINE]?
A: MLD (Periplaneta americana [1]): 320 nmol; Activity [5]: 422 µM; MLD (Periplaneta americana [8]): 160 nmol
